Molecules are shown by their SMILES. Entries after “also recorded” stand apart in the source; their conditions may differ.

In data set [1] the target is CB1 receptor (Homo sapiens (Human), UniProt P21554). Kind of data set: CB1 receptor radioligand binding assay, membranes from human source. As to the method: (§1) Radioligand binding assays: Binding affinity was determined by a radioligand binding assay. The different BB8-conjugates binding to CB1 and CB2 receptors was assessed in competition displacement assays using [^3H]CP-55.940 as the radioligand and crude membranes from mouse brain for CB1 receptor and human kidney cells for CB2 receptor.
CB1 receptor (Homo sapiens (Human), UniProt P21554), sequence (P21554 whole entry): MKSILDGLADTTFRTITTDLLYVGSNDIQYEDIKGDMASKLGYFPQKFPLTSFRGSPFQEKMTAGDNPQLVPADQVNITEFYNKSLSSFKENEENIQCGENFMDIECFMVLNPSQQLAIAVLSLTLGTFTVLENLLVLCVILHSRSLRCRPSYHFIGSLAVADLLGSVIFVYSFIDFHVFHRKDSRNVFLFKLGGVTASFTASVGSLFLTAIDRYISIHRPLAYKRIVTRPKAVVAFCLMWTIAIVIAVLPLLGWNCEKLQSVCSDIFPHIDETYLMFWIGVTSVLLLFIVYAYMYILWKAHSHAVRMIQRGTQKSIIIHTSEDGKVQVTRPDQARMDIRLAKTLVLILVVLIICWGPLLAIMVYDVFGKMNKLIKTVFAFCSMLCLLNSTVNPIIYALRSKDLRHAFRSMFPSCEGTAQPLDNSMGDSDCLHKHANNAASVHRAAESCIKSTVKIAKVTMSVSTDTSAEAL
(§2) CB1 receptor binding assay: Mouse brain membranes were used as the source material for CB1 receptors. The displacement of specifically bound tritiated CP-55.940 from these membranes using a standard filtration assay was used to determine the Ki values for the test compounds. Briefly. 20 μg of protein was incubated for 1 h at 30° C. in the presence of 0.5 nM [^3H]CP-55,940 and various concentrations (10^−5M-10^−11M) of test compound/control, final volume of 1 mL. The incubation was terminated by rapid filtration and washing, and the amount of specifically bound [^3H]CP-55,940 was determined. Briefly, membranes with bound [^3H]CP-55,940 were separated and washed from free ligand by vacuum filtration, adsorbing the membrane onto a Whatman glass microfiber filter paper ([…], Cat #1821271). Finally, the Whatman filter paper with adsorbed membranes was cut and placed in scintillation liquid (Ultima Gold) for 1 h at 25° C. followed by a β counter reading of bound [^3H]CP-55,940 radioligand. All data were in triplicates with Ki values determined using GraphPad Prism 7.02 analysis software. […] In some cases, membranes from human source were used to determine CB1 receptor binding affinity.

For data set [2], the system named is mice. The data set can be described thus: Catalepsy test (bar test), WIN55,212-induced. To be noted: single dose 20 mg/kg PO 30 min prior to WIN55,212 3 mg/kg IP. It is filed as in vivo. Here is the method:
Catalepsy test: Catalepsy was assayed using the bar test. Briefly, mice were removed from their home cage, and their forepaws were placed on a horizontal bar, 0.5 cm in diameter, positioned 4 cm above the bench surface. Vehicle-treated mice routinely let go of the bar within 2 sec. Cataleptic behavior was defined as the time the animals remained motionless holding on to the bar, with an arbitrary cutoff of 30 sec. The antagonists were given 30 min before the IP injection of 3 mg/kg WIN55,212. The test was performed 60 min after agonist administration.

Data set [3] deals with mice. Kind of data set: Elevated plus-maze, anxiety-related behavior. Type of data set: in vivo. To be noted: single dose 20 mg/kg PO. As to the method: Elevated plus-maze: Anxiety-related behaviors were assessed using the EPM test as reported previously. Animals were placed on the 5×5 cm central platform of an apparatus from which four arms, 30 cm×5 cm extended. Two of the arms (the closed arms) are enclosed within 15 cm high walls, and the two other arms (the open arms) have 1 cm high rims. The whole maze is elevated 75 cm above the ground. During the 6 min test time, the number of entries to each arm type (closed or open arms, frequencies) and the time spent in each type of arm (closed or open arms, duration) during the test were measured.

The target in data set [4] is T1, CB1 receptor (Mus musculus (Mouse), UniProt P47746). Kind of data set: [35S]GTPγS binding assay for CB1 receptor, mouse brain membranes. It is filed as biochemical. To be noted: nature of binding: agonist/antagonist/inverse agonist. Here is the method: For CB1 receptor-mouse brains were dissected and P2 membranes prepared and resuspended at ˜2 μg protein/μL in 1 ml assay buffer (50 mM Tris HCl, 9 mM MgCl2, 0.2 mM EDTA, 150 mM NaCl; pH 7.4). Ligand-stimulated [^35S]GTPγS binding was assayed as described previously (Tam et al., JCI 2010). Briefly, membranes (10 μg protein) were incubated in assay buffer containing 100 μM GDP, 0.05 nM [^35S]GTPγS, test compounds at various concentrations (CP55940/Rimonabant as controls and test compounds for BB8 conjugates), and 1.4 mg/mL fatty acid-free BSA in siliconized glass tubes. Membranes with bound ligand ([^35S]GTPγS) were separated from free ligand by vacuum filtration and were analyzed using β counter as described above. Non-specific binding was determined using 10 μM GTPS (cold GTP). Basal binding was assayed in the absence of the tested compound and in the presence of GDP.
T1 sequence (P47746 whole entry): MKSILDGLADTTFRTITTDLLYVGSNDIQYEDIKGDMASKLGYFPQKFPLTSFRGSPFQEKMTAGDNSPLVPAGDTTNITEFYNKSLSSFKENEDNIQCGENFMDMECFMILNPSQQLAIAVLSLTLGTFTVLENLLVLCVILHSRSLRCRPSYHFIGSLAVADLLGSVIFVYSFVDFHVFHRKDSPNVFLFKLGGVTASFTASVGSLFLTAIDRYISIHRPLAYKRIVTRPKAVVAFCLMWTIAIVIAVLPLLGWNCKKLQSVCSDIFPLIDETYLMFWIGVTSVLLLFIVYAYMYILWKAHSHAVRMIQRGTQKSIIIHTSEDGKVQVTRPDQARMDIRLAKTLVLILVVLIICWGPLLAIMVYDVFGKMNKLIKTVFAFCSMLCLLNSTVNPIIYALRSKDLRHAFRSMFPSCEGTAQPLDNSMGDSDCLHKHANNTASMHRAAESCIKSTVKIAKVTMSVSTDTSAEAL
(GTPγS resists hydrolysis and so accumulates on activated G proteins.)

In data set [5] the target is CB2 receptor (Homo sapiens (Human), UniProt P34972). Kind of data set: CB2 receptor radioligand binding assay, [3H]CP-55,940 displacement, human kidney membranes. As to the method:
as §1
CB2 receptor binding assay: Human kidney membranes were used as the source material for CB2 receptors. The displacement of specifically bound tritiated CP-55,940 from these membranes using a standard filtration assay was used to determine the Ki values for the test compounds. Briefly, 1.25 μg of protein was incubated for 1.5 h at 30° C. in the presence of 0.5 nM [^3H]CP-55,940 and various concentrations (10^−5M-10^−11M) of test compound/control, final volume of 1 mL. The incubation was terminated by rapid filtration and washing, and the amount of specifically bound [^3H]CP-55,940 was determined. Briefly, membranes with bound [^3H]CP-55,940 were separated and washed from free ligand by vacuum filtration, adsorbing the membrane onto a Whatman glass microfiber filter paper ([…], Cat #1821271). Finally, the Whatman filter paper with adsorbed membranes was cut and placed in scintillation liquid (Ultima Gold) for 1 h at 25° C. followed by a β counter reading of bound [^3H]CP-55,940 radioligand. All data were in triplicates with Ki values determined using GraphPad Prism 7.02 analysis software.

The target of data set [6] is T1, CB1 receptor. The data set can be described thus: CB1 receptor radioligand binding assay, [3H]CP-55,940 displacement, mouse brain membranes. As to the method: as §1, §2
The nature of data set [7]: Pharmacokinetics after oral and IV dosing. It is filed as in vivo, C57BL/6J mice. The conditions noted are these: for Cmax: male, C57BL/6J, po. Here is the method:
Pharmacokinetics: Male C57BL/6J mice (7-9 weeks, N=3 in each group) were used in this study. Mice were fasted at least 12 hr prior to administration of test article and have access to food ad libitum 4 hr post dosing. Appropriate amount of test article was accurately weighted and mixed with the appropriate volume of vehicle to get a clear oral solution. The formulations were prepared on the day of dosing, and mice were dosed via either orally gavage or intravenous injection, up to 4 hr after formulations were prepared. About 30 μL blood per time point was collected from the saphenous vein followed by plasma preparation. Dose formulation and sample analysis was performed by LC-MS/MS method. Plasma concentration versus time data was analyzed by non-compartmental method.

Where [8] appears, read: mouse, plasma, oral administration of 10 and 20 mg/kg, C57BL/6J male mice.

CB2 receptor, sequence (P34972 whole entry): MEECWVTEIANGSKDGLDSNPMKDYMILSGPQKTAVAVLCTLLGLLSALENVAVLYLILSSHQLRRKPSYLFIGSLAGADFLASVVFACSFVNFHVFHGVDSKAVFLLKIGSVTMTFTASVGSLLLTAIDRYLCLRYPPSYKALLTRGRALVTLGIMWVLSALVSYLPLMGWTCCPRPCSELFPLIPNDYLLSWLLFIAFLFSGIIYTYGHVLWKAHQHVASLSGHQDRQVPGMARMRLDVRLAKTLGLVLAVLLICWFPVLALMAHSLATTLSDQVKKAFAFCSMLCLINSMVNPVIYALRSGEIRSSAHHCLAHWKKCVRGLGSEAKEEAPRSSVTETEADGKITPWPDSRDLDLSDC

Take `O=S(=O)(NC1CCCOc2c1nn(-c1ccccc1Cl)c2-c1ccc(Cl)cc1)c1ccc(Cl)cc1` (centres unmarked) [BNS808, 4-chloro-N-[2-(2-chlorophenyl)-3-(4-chlorophenyl)-5,6,7,8-tetrahydrooxepino[3,2-c]pyrazol-8-yl]benzenesulfonamide]: the Ki (usually the equilibrium dissociation constant of an inhibitor or competing ligand from its target) in data set [1] turned out to be 0.7 nM.
For `Cc1ccc(C)c(OCCCC(C)(C)C(=O)NC2CCCOc3c2nn(-c2ccccc2Cl)c3-c2ccc(Cl)cc2)c1` (centres unmarked) [BNS822, N-[2-(2-chlorophenyl)-3-(4-chlorophenyl)-5,6,7,8-tetrahydrooxepino[3,2-c]pyrazol-8-yl]-5-(2,5-dimethylphenoxy)-2,2-dimethyl-pentanamide], in data set [2], the “WIN55,212-induced catalepsy” value was “did not block; also recorded: no effect”. The “anxiogenic behavior in the Elevated Plus Maze” value in data set [3] is recorded as “nor did it induce a robust anxiogenic response; also recorded: no anxiogenic effect”. Further, the “mCB1R GTPγ[^35S] (activity)” value in data set [4] is reported as “Antagonist”. The “hCB2R Ki (nM)” value in data set [5] is reported as “No binding”. In addition, the “affinity / potency against the CB1 receptor (in words)” value in data set [6] (CB1 receptor (mouse/human)) was “high potency”. For the same compound, in data set [6] (mouse (m) CB1 receptor, read-out: CB1R Ki (nM) (m)), the Ki worked out at 1.4 nM. Further, in data set [7] (absolute, oral 10 and 20 mg/kg vs IV 1 mg/kg, C57BL/6J male mice), the “Oral bioavail (%)” value is on record as 8.62-10.59%. Moreover, the Cmax (in general, the peak of the concentration-time curve) was 283 ng/mL in data set [7] (mouse, plasma, 10 mg/kg, oral 10 mg/kg, mice); 811 ng/mL in data set [7] (mouse, plasma, 20 mg/kg, oral 20 mg/kg, mice); 283 to 811 ng/mL in data set [7] (mouse, plasma, 20 mg/kg, oral administration of 10 and 20 mg/kg (range over both doses), C57BL/6J male mice). The Tmax (in general, the time at which the peak concentration occurs) in data set [7] (setting [8]) is 2 h. For the same compound, the half-life – broadly, the time in which the quantity being followed falls by half – in data set [7] (setting [8]) is 5.2 h. For the same compound, in data set [7] (oral administration of 10 and 20 mg/kg, C57BL/6J male mice), the “T1/2” value is reported as 5.2 h.

Source of the values: US20240189287A1, “PERIPHERALLY RESTRICTED CB1 RECEPTOR BLOCKERS AND USES THEREOF” (BIONANOSIM (BNS) LTD, priority 2021, published 2024).
